From ChEMBL document CHEMBL3885881, “DrugMatrix”

Species: Rattus norvegicus
Experiment: DrugMatrix - Regimen: Daily Repeat
Format: toxicity, organism-based, Sprague-Dawley
Set-up: regimen Daily Repeat, gender Male, age 6-8 weeks
Details: in vivo, po, route oral GAVAGE, vehicle 100 % WATER; for ABSOLUTE BASOPHIL / ABSOLUTE EOSINOPHIL / ABSOLUTE LYMPHOCYTE / ABSOLUTE MONOCYTE / ABSOLUTE SEGMENTED NEUTROPHIL / BASOPHIL / EOSINOPHIL / ERYTHROCYTE COUNT / HEMATOCRIT / HEMOGLOBIN / LEUKOCYTE COUNT / LYMPHOCYTE / MEAN CORPUSCULAR HEMOGLOBIN / MEAN CORPUSCULAR HEMOGLOBIN CONCENTRATION / MEAN CORPUSCULAR VOLUME / MONOCYTE / NEUTROPHIL / NUCLEATED RED BLOOD CELLS / PLATELET COUNT: tissue Blood; for ALANINE AMINOTRANSFERASE / ALBUMIN / ALKALINE PHOSPHATASE / ASPARTATE AMINOTRANSFERASE / BLOOD UREA NITROGEN / CARBON DIOXIDE / CHLORIDE / CHOLESTEROL / CREATINE PHOSPHOKINASE / CREATININE / GLUCOSE / LACTATE DEHYDROGENASE / LIPASE / PHOSPHORUS / POTASSIUM / SODIUM / TOTAL BILIRUBIN / TOTAL PROTEIN / URIC ACID: tissue Plasma
[1] = 0 mg/kg, 72 h, dose level Control, time 3 day
[2] = 0 mg/kg, 120 h, dose level Control, time 5 day
[3] = 100 mg/kg, 72 h, dose level Low, time 3 day

NCC1(CC(=O)O)CCCCC1 [GABAPENTIN]
ABSOLUTE BASOPHIL [1]: 0 CELLS/uL | ABSOLUTE EOSINOPHIL [1]: 133.83 CELLS/uL | ABSOLUTE LYMPHOCYTE [1]: 11674.67 CELLS/uL | ABSOLUTE MONOCYTE [1]: 65.33 CELLS/uL | ABSOLUTE SEGMENTED NEUTROPHIL [1]: 1559.5 CELLS/uL | BASOPHIL [1]: 0% | EOSINOPHIL [1]: 1% | ERYTHROCYTE COUNT [1]: 5.26 x10E6/uL | HEMATOCRIT [1]: 34.15% | HEMOGLOBIN [1]: 13.6 G/DL | LEUKOCYTE COUNT [1]: 13.43 x10E3/uL | LYMPHOCYTE [1]: 86.83% | MEAN CORPUSCULAR HEMOGLOBIN [1]: 25.87 pg | MEAN CORPUSCULAR HEMOGLOBIN CONCENTRATION [1]: 39.85 G/DL | MEAN CORPUSCULAR VOLUME [1]: 64.93 fL | MONOCYTE [1]: 0.5% | NEUTROPHIL [1]: 11.67% | NUCLEATED RED BLOOD CELLS [1]: 0.17 /100WBC | PLATELET COUNT [1]: 1188.5 x10E3/uL | ALANINE AMINOTRANSFERASE [1]: 48.5 u/L | ALBUMIN [1]: 4.1 G/DL | ALKALINE PHOSPHATASE [1]: 338.83 u/L | ASPARTATE AMINOTRANSFERASE [1]: 84.17 u/L | BLOOD UREA NITROGEN [1]: 15.17 mg/dL | CARBON DIOXIDE [1]: 26.83 mmol/L | CHLORIDE [1]: 101.33 MEQ/L | CHOLESTEROL [1]: 77 mg/dL | CREATINE PHOSPHOKINASE [1]: 600.83 u/L | CREATININE [1]: 0.15 mg/dL | GLUCOSE [1]: 161.67 mg/dL | LACTATE DEHYDROGENASE [1]: 222.17 u/L | LIPASE [1]: 10.17 u/L | PHOSPHORUS [1]: 12.63 mg/dL | POTASSIUM [1]: 6.36 MEQ/L | SODIUM [1]: 143.17 MEQ/L | TOTAL BILIRUBIN [1]: 0.17 mg/dL | TOTAL PROTEIN [1]: 5.65 G/DL | URIC ACID [1]: 1.38 mg/dL | ABSOLUTE BASOPHIL [2]: 0 CELLS/uL | ABSOLUTE EOSINOPHIL [2]: 66.5 CELLS/uL | ABSOLUTE LYMPHOCYTE [2]: 10848.67 CELLS/uL | ABSOLUTE MONOCYTE [2]: 106.17 CELLS/uL | ABSOLUTE SEGMENTED NEUTROPHIL [2]: 1028.67 CELLS/uL | BASOPHIL [2]: 0% | EOSINOPHIL [2]: 0.5% | ERYTHROCYTE COUNT [2]: 5.42 x10E6/uL | HEMATOCRIT [2]: 34.53% | HEMOGLOBIN [2]: 14.07 G/DL | LEUKOCYTE COUNT [2]: 12.05 x10E3/uL | LYMPHOCYTE [2]: 90% | MEAN CORPUSCULAR HEMOGLOBIN [2]: 25.98 pg | MEAN CORPUSCULAR HEMOGLOBIN CONCENTRATION [2]: 40.73 G/DL | MEAN CORPUSCULAR VOLUME [2]: 63.78 fL | MONOCYTE [2]: 1% | NEUTROPHIL [2]: 8.5% | NUCLEATED RED BLOOD CELLS [2]: 0 /100WBC | PLATELET COUNT [2]: 1256.33 x10E3/uL | ALANINE AMINOTRANSFERASE [2]: 55.17 u/L | ALBUMIN [2]: 4.3 G/DL | ALKALINE PHOSPHATASE [2]: 333.83 u/L | ASPARTATE AMINOTRANSFERASE [2]: 81.33 u/L | BLOOD UREA NITROGEN [2]: 15.67 mg/dL | CARBON DIOXIDE [2]: 30 mmol/L | CHLORIDE [2]: 100.67 MEQ/L | CHOLESTEROL [2]: 67.67 mg/dL | CREATINE PHOSPHOKINASE [2]: 221.33 u/L | CREATININE [2]: 0.16 mg/dL | GLUCOSE [2]: 161.33 mg/dL | LACTATE DEHYDROGENASE [2]: 166.83 u/L | LIPASE [2]: 8.33 u/L | PHOSPHORUS [2]: 12.63 mg/dL | POTASSIUM [2]: 5.98 MEQ/L | SODIUM [2]: 144.63 MEQ/L | TOTAL BILIRUBIN [2]: 0.2 mg/dL | TOTAL PROTEIN [2]: 6.15 G/DL | URIC ACID [2]: 1.17 mg/dL | ABSOLUTE BASOPHIL [3]: 0 CELLS/uL | ABSOLUTE EOSINOPHIL [3]: 86.33 CELLS/uL | ABSOLUTE LYMPHOCYTE [3]: 13178.33 CELLS/uL | ABSOLUTE MONOCYTE [3]: 43 CELLS/uL | ABSOLUTE SEGMENTED NEUTROPHIL [3]: 1125.67 CELLS/uL | BASOPHIL [3]: 0% | EOSINOPHIL [3]: 0.67% | ERYTHROCYTE COUNT [3]: 5.28 x10E6/uL | HEMATOCRIT [3]: 34.3% | HEMOGLOBIN [3]: 13.73 G/DL | LEUKOCYTE COUNT [3]: 14.43 x10E3/uL | LYMPHOCYTE [3]: 91% | MEAN CORPUSCULAR HEMOGLOBIN [3]: 26.1 pg | MEAN CORPUSCULAR HEMOGLOBIN CONCENTRATION [3]: 40.1 G/DL | MEAN CORPUSCULAR VOLUME [3]: 65 fL | MONOCYTE [3]: 0.33% | NEUTROPHIL [3]: 8% | NUCLEATED RED BLOOD CELLS [3]: 0 /100WBC | PLATELET COUNT [3]: 1169.33 x10E3/uL | ALANINE AMINOTRANSFERASE [3]: 52.33 u/L | ALBUMIN [3]: 4.17 G/DL | ALKALINE PHOSPHATASE [3]: 377.67 u/L | ASPARTATE AMINOTRANSFERASE [3]: 80 u/L | BLOOD UREA NITROGEN [3]: 14.33 mg/dL | CARBON DIOXIDE [3]: 27.33 mmol/L | CHLORIDE [3]: 103 MEQ/L | CHOLESTEROL [3]: 71 mg/dL | CREATINE PHOSPHOKINASE [3]: 245 u/L | CREATININE [3]: 0.17 mg/dL | GLUCOSE [3]: 170.67 mg/dL | LACTATE DEHYDROGENASE [3]: 111.67 u/L | LIPASE [3]: 9.67 u/L | PHOSPHORUS [3]: 11.67 mg/dL | POTASSIUM [3]: 6.11 MEQ/L | SODIUM [3]: 144.87 MEQ/L | TOTAL BILIRUBIN [3]: 0.23 mg/dL | TOTAL PROTEIN [3]: 5.67 G/DL | URIC ACID [3]: 1.6 mg/dL
